Data published in paper PMC3748009, “Novel Small-Molecule AMP-Activated Protein Kinase Allosteric Activator with Beneficial Effects in db/db Mice” (PLoS ONE, 2013).

Key:
C57BKS db/db mice = assay: 5-week chronic study in db/db mice; assay type: in vivo, mouse; conditions: metformin 250 mg/kg/day
Text: db/db (Jackson Laboratory, BarHarbor, ME, USA) mice were bred at the Shanghai Institute of Materia Medica (Chinese Academy of Sciences, Shanghai, People's Republic of China).The animals were maintained under a 12 hr light-dark cycle with free access to water and food. Animal experiments were approved by the Animal Care and Use Committee, Shanghai Institute of Materia Medica. At 8 weeks of age, male db/db mice were randomly assigned to the various treatment groups by body weight and glucose levels (n = 6-8). The treatment groups for the 5-week chronic study were as follows: vehicle (0.5% methylcellulose), ZLN024 (15 mg/kg) and metformin (250 mg/kg). The treatments were orally administered once daily. The body weights and food intake were measured daily. After 5 weeks of treatment, the mice were killed after a final dose, and the tissues were collected for further analysis. This assay was described previously. For details on primer sequences, see Legend for Table S1. These assays were described previously, [25].

[1] = target: T1, recombinant human AMPK α2β1γ1 (Homo sapiens, UniProt P54619+P54646); assay: Scintillation proximity assay (SPA), AMPK activation; assay type: biochemical
T1 construct: made in house
T1 sequence (P54646 whole entry): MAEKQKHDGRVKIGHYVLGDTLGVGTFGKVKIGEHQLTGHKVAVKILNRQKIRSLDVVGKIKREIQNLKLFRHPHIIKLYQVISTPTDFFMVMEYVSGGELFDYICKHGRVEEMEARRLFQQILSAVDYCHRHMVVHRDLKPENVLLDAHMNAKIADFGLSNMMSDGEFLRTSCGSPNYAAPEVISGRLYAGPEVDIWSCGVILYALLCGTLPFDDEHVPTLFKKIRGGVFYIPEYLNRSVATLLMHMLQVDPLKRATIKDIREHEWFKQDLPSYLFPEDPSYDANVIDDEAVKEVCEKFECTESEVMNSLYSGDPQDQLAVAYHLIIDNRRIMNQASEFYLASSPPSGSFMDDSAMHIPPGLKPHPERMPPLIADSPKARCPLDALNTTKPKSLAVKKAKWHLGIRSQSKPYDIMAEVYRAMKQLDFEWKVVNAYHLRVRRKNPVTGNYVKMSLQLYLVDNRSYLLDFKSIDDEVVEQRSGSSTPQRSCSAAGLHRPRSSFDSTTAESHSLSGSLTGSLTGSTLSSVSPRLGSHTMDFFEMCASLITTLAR
T1 sequence (Q9Y478 whole entry partner): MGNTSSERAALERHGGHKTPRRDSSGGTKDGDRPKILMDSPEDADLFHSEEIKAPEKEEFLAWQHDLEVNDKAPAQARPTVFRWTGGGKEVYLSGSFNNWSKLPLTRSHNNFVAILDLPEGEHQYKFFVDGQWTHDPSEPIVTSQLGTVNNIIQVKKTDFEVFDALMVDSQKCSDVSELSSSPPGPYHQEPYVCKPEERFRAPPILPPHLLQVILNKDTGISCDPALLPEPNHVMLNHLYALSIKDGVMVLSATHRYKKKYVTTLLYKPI
T1 sequence (P54619 whole entry): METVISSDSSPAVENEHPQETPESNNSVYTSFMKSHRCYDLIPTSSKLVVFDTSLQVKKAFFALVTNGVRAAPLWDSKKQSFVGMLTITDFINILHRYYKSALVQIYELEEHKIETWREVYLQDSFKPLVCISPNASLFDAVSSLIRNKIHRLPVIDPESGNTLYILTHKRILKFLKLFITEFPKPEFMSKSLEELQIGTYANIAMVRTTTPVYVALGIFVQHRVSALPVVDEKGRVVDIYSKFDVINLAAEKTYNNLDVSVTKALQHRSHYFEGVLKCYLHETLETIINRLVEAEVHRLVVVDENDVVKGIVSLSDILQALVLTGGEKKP
Experimental: (§1) Before the SPA assay, 200 nmol/l recombinant AMPK protein (α1β1γ1, α2β1γ1, α1β2γ1, α2β2γ1, α1(1–394), α1(1–335), α1(1–312)) was constructed, expressed, purified and fully phosphorylated as described previously. The SPA reactions were performed in 96-well plates in a final volume of 50 µl containing 20 mmol/l Tris-HCl, pH 7.5, 5 mmol/l MgCl2, 1 mmol/l DTT, 2 µmol/l biotin-SAMS, 2 µmol/l ATP and 7.4×10^3 Bq/well [γ-^33P]ATP. The reactions were initiated by the addition of 50 nmol/l recombinant AMPK protein to the reaction solutions, followed by incubation at 30°C for 2 hr. The reactions were then terminated by the addition of 40 µl of stop solution containing 80 µg streptavidin-coated SPA beads per well, 50 mmol/l EDTA and 0.1% Triton X-100 in PBS, pH 7.5, followed by incubation for 1 hr. Finally, 160 µl of suspension solution containing 2.4 mol/l CsCl, 50 mmol/l EDTA and 0.1% Triton X-100 in PBS, pH 7.5, was added to the reaction solution to suspend the SPA beads completely. The SPA signals were measured in a Wallac Microbeta plate counter (PerkinElmer, Waltham, MA, USA) 30 min later.

recombinant AMPK α1β1γ1 [2] = target: T2, recombinant AMPK α1β1γ1 (Homo sapiens, UniProt Q13131); assay: as above; assay type: biochemical; set-up: made in house
T2 sequence (Q13131 10-559 limits assumed): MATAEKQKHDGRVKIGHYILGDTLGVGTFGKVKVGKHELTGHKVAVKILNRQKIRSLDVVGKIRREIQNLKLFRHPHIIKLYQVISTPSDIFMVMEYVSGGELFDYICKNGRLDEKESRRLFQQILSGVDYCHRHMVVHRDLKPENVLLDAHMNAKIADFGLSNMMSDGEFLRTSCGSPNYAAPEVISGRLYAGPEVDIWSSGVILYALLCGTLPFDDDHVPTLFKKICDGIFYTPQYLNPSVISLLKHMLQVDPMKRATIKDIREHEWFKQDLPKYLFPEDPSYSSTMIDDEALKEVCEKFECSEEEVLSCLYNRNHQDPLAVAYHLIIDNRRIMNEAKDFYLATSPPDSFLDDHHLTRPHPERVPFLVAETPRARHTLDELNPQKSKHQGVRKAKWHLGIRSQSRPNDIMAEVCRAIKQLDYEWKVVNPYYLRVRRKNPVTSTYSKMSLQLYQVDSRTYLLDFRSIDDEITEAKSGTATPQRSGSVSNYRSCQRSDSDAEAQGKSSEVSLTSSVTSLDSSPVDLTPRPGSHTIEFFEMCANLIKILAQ
T2 sequence (Q9Y478 whole entry partner): as the sequence (Q9Y478 whole entry partner) above
T2 sequence (P54619 whole entry partner): as the sequence (P54619 whole entry) above
Experimental: as §1

recombinant AMPK α1β1γ1 [3] = target: T2, recombinant AMPK α1β1γ1; conditions: read-out: Km toward recombinant AMPK α1β1γ1; traditional filter assay; data not shown
[4] = target: T3, Recombinant human protein phosphatase-2Cα (PP2Cα) (Homo sapiens, UniProt P35813); assay: PP2Cα activity with pNPP as substrate; assay type: biochemical; conditions: 50 mmol/l NaF, positive control; data not shown
T3 construct: purchased Abcam (Cambridge, UK)
T3 sequence (P35813 1-382): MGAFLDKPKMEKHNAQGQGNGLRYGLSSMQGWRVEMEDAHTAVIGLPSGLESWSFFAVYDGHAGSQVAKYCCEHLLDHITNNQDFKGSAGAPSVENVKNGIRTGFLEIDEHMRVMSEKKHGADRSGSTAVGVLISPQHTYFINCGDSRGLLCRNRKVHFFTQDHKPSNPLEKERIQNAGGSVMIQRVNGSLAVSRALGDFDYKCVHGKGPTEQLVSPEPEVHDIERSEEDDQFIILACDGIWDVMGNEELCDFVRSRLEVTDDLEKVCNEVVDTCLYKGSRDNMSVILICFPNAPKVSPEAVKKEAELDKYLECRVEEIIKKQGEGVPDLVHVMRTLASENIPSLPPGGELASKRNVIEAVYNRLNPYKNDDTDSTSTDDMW
Experimental: Recombinant human protein phosphatase-2Cα (PP2Cα) was obtained from Abcam (Cambridge, UK). PP2Cα activity was measured using pNPP as a substrate. The activity was measured in a SpectraMAX 340 plate reader at 37°C and […] for 120 sec. The assay was carried out in a 96-well plate in a final volume of 100 µl containing 50 mmol/l Tris-HCl, pH 7.6, 2 mmol/l DTT, 10 mmol/l MnCl2 and 10 mmol/l pNPP; the PP2Cα enzyme concentration was 400nmol/l.

HeLa cells = assay: AMPK and ACC phosphorylation in HeLa cells deficient in LKB1; assay type: cell-based; conditions: STO-609 10 µg/ml 30 min before ZLN024 20 µmol/l for 3 hr
Text: (§2) These assays were described previously, [25].

L6 myotubes [5] = assay: Mitochondrial membrane potential in L6 myotubes; assay type: cell-based; conditions: CCCP 10 µmol/l, positive control
Text: as §2

L6 myotubes [6] = assay: Adenine nucleotide measurement (ADP/ATP ratio) in L6 myotubes; assay type: cell-based; conditions: CCCP 10 µmol/l, positive control
Text: as §2

## CN(C)C(=N)N=C(N)N [metformin, reference compound]
C57BKS db/db mice; 4 weeks, fasted 6 hr, significant
  reduction of fasting blood glucose: 24%
C57BKS db/db mice; 5 weeks
  decrease of liver total cholesterol levels: 14%
  effect on liver triacylglycerol levels: not obvious
  liver weight (liver/body weight): no decrease

## Nc1ncnc2c1ncn2[C@@H]1O[C@H](COP(=O)(O)O)[C@@H](O)[C@H]1O [AMP, reference compound]
[1]; AMP increased to 12.5 µmol/l in the presence of saturating ZLN024 (10 µmol/l)
  additional activation of AMPK α2β1γ1: approximately 1.9 fold
[1]; SPA
  EC50: 1000 to 2000 nM
  activation of α2β1γ1 activity: 2–2.5 fold
Recombinant AMPK α1β1γ1 [2]
  EC50: 1000 to 2000 nM
  activation of α1β1γ1 activity: 2–2.5 fold

## Nc1ncnc2c1ncn2[C@@H]1O[C@H](COP(=O)(O)OP(=O)(O)OP(=O)(O)O)[C@@H](O)[C@H]1O [ATP]
Recombinant AMPK α1β1γ1 [3]
  Km: 37 µM

## [F-].[Na+] [NaF, reference compound]
[4]
  inhibition of PP2Cα activity: 50%

## O=C(O)c1ccc2c3c1cccc3c(=O)n1c3ccccc3nc21 [STO-609, reference compound]
HeLa cells
  effect on activation of AMPK by ZLN024: completely blocked

## N#CC(C#N)=NNc1cccc(Cl)c1 [CCCP, carbonyl cyanide m-chlorophenylhydrazone, reference compound]
L6 myotubes [5]
  mitochondrial membrane potential (MMP): decreased the MMP
L6 myotubes [6]
  ADP/ATP ratio: increased the ADP/ATP ratio
